Reference: patent US20170052170A1, “NOVEL CELL LINES AND METHODS” (priority 2009, published 2017)

Biological target: T1, sweet taste receptor (T1R2, T1R3 endogenous) (Homo sapiens, UniProt Q7RTX0+Q8TE23)
T1 construct: endogenous in cells; host or cells: HuTu (ATCC HTB-40), H716 (ATCC CCL-251), HEK 293T (ATCC CRL-11268); some with prior UV treatment
T1 sequence (Q8TE23 20-839): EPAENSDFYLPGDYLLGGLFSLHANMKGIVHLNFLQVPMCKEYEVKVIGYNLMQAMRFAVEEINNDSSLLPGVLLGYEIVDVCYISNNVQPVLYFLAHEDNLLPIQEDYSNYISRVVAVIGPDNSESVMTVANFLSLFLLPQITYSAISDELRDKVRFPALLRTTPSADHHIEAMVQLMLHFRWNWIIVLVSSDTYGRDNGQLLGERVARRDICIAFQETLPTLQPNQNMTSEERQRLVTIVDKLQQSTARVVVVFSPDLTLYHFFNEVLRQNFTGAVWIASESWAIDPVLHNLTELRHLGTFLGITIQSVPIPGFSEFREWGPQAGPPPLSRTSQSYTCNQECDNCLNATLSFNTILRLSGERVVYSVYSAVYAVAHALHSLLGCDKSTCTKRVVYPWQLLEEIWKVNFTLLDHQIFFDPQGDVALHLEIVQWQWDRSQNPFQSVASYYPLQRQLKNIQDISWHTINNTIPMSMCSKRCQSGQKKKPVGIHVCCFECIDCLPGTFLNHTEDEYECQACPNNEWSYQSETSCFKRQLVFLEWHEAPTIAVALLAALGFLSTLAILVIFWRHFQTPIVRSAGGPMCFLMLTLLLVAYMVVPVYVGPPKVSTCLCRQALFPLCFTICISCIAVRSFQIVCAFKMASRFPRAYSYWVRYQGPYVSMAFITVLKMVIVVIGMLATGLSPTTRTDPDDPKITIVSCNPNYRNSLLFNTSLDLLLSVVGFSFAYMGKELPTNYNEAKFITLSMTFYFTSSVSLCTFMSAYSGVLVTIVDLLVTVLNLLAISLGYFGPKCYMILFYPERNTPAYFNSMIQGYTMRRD
T1 sequence (Q7RTX0 21-852): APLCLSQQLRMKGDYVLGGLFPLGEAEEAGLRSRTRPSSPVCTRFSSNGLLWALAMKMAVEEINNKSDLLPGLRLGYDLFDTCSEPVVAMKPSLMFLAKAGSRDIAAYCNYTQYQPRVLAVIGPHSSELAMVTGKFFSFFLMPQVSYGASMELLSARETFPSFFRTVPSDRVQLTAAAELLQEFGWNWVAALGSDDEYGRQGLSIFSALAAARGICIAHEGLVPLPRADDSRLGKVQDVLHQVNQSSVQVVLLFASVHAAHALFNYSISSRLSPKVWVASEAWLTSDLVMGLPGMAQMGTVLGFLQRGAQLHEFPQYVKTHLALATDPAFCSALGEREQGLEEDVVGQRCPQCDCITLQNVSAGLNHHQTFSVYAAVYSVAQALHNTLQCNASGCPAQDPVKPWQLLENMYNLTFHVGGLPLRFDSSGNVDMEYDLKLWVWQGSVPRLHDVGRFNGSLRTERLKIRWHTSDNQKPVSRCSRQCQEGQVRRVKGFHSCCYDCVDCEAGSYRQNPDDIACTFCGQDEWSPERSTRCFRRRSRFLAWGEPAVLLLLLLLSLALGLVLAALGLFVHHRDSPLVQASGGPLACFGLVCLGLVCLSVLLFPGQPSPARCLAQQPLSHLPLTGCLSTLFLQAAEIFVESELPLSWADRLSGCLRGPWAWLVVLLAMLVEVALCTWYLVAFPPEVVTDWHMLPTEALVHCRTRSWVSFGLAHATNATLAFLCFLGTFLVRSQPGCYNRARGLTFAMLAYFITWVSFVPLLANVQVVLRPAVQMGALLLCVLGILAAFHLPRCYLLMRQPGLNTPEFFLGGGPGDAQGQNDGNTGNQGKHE
Assay: Calcium flux assay, cells endogenously expressing at least one sweet receptor subunit
Type: cell-based
Conditions: 15 mM fructose
Procedure: Populations of cells each resulting from the expansion of single isolated cells then were characterized for their ability to respond to a sweet ligand using functional cell-based assays. 15 mM fructose was used in these experiments. Depending on the cell type, different conditions were used as described below.
Forty-eight hours prior to assay, cells were seeded in growth media (L15 media (Sigma #L5520) supplemented with 10% serum (Sigma #SAC1203C), 4 mM L-Glutamine (Sigma G7513), 10 mM HEPES (Sigma H0887), and a […] of penicillin/streptomycin solution (final concentration 100 units penicillin/100 μG streptomycin per mL) (Sigma # P4458) at a high density, from 12 to 20 million cells, in 10 cm dishes. Cells were dissociated from the culture matrix and were seeded at 35,000 cells per well 24 hours prior to assay in 384 well plates. Media was removed after 18 to 24 hours. A calcium-sensitive fluorescent dye (Fluo-4, Invitrogen) diluted in sweet assay buffer (130 mM NaCl, 1.1mMKH2PO4, 1.3 mM CaCl, 20 mM HEPES and 3mMNaHPO4*7H20) was added then to each well. Cells were incubated in this media for 1 hour. Plates then were loaded on a high throughput plate reader (Hamamatsu FDSS). […] Calcium flux or assay response was detected prior to, during and following addition of sweet assay buffer containing fructose to each well for a final concentration of 15 mM fructose. […]
Alternatively, cells were dissociated from the culture matrix and were seeded at cell densities from 2,500 to 20,000 per well for 24 or 48 hours prior to assay in Eagle's Minimal Essential Media (Sigma #D5650) containing 10% FBS (Sigma #2442), 2 mM L-Glutamine (Sigma #G7513) and 1 mM Sodium Pyruvate (Sigma #S8636) or a mixture of equal parts of this media and L-15 media (Sigma, L5520) in a 384 well plate. […] Plates then were loaded on a high throughput plate reader (Hamamatsu FDSS). […] Calcium flux or assay response was detected prior to, during and following addition of sweet assay buffer containing fructose to each well for a final concentration of 15 mM fructose. […]

Measured: response in calcium flux reporter assay

O=C(CO)[C@@H](O)[C@H](O)[C@H](O)CO [fructose]
responding to fructose: 293T cells, FIG. 28C | H716 cells, FIG. 28B | HuTu cells, FIG. 28A
